Laboratory results from patent US20010019716A1 (priority 1996, published 2001).

Columns and labels:
[1] = test system: HeLa cells; format: cell-based
[2] = test system: HeLa cells; format: cell-based; remark: listed apart in the source
[3] = test system: Mycobacterium tuberculosis; settings: in vivo; cited from earlier work

Row | Molecule | blocking of uptake of Mcep-coated beads [1] | concentration of peptide at which internalization of the beads was achieved (as low as) [2] [nM] | concentration sufficient to permit uptake of the spheres by Hela cells [2] | entry of coated beads into HeLa cells compared with whole Mcep (SEQ. ID. No. 4) [2] | uptake of coated 0.3 μm latex microspheres, transmission electron microscopy [2] | effective in preventing the disease [3]
1 | TKRRITPKDVIDVRSVTTEINT [Inv3] | competitively blocked | 25 | nanomolar concentration | as efficiently as the whole Mcep | uptake | 
2 | NNC(=O)c1ccncc1 [isoniazid] |  |  |  |  |  | about 90%
